Experiments:
[1] = test system: multidrug-resistant P. aeruginosa; assay: Sensitization of antibiotic-resistant bacteria (compound plus breakpoint antibiotic concentration); format: cell-based, Pseudomonas aeruginosa; settings: flavonoid 40 µM, 24 h; for Effect on viability in combination with colistin: colistin 2 mg/L; for Effect on viability in combination with imipenem: imipenem 4 mg/L; as to Effect on viability in combination with imipenem: key: -: no effect (100% viability) was observed up to the highest flavonolignan concentration tested (>40 µM); reversion of resistance: the compound reversed the resistant phenotype to a sensitive one
How it was run: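 A multidrug-resistant clinical isolate of P. aeruginosa, obtained from the General University Hospital in Prague and resistant to colistin and imipenem among other drugs, was grown in Mueller–Hinton broth. Flavonoid derivatives at up to 40 µM were combined with EUCAST breakpoint antibiotic concentrations. MIC was determined per ISO 20776-1: 2020, with viability read as A590 nm after 24 h at 37 °C, 150 rpm.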

[2] = Folin-Ciocalteu reagent reduction; settings: gallic acid equivalents
How it was run: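 ABTS and DPPH radical scavenging gauged antiradical activity. Reducing capacity was measured as reduction of Folin–Ciocalteu reagent and of ferric ions (FRAP).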

[3] = test system: pooled male rat microsomal liver membranes; assay: Inhibition of lipid peroxidation induced by tert-butyl hydroperoxide; format: biochemical; settings: male rat microsomes, read-out: ILP IC50
Description: The antiradical activity was evaluated by the ability to scavenge ABTS and DPPH radicals. Reducing capacity was assessed by the ability to reduce the Folin–Ciocalteu reagent (FCR) and ferric ions (FRAP). The ability to inhibit lipid peroxidation of pooled male rat microsomal liver membranes induced by tert-butyl hydroperoxide was also evaluated and the results were expressed as IC50 values.

[4] = test system: doxorubicin-resistant human ovarian carcinoma (HOC/DOX); assay: Cytotoxicity (resazurin assay, 72 h); format: cell-based; settings: for IC50: Homo sapiens, 72 h, resazurin assay; for SI (selectivity index): ratio IC50 for HDF / IC50 for HOC/DOX
How it was run: (§1)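 HDF and HOC/DOX cells in DMEM with 10% FBS were treated 24 h after seeding with 31.25–500 µM compound for 72 h at 37 °C. Viability was read by resazurin fluorescence (560/590 nm) after 2 h; IC50 came from nonlinear regression, and selectivity index = IC50(HDF)/IC50(HOC/DOX).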

[5] = test system: human dermal fibroblasts (HDF); assay: Cytotoxicity (resazurin assay, 72 h); format: cell-based; settings: Fibroblast
How it was run: as §1

[6] = test system: lipopolysaccharide-stimulated macrophages (RAW 264.7); assay: Inhibition of nitric oxide production (Griess reagent); format: cell-based, murine; settings: Mus musculus, RAW264.7; LPS 100 ng/mL, 24 h; highest tested concentration 100 µM; read-out: NO Production IC50
How it was run: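 RAW 264.7 macrophages seeded at 1 × 10^6 cells/mL and stimulated with bacterial lipopolysaccharide. After 24 h, medium was mixed 1:1 with Griess reagent (0.04 g/mL) and absorbance read at 540 nm after 15 min. Viability by resazurin.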

SMILES | Effect on viability in combination with colistin [1] | Effect on viability in combination with imipenem [1] | FCR [GAE] [2] | IC50 [3] | IC50 [4] | SI (selectivity index) [4] | IC50 [5] | IC50 [6]
O=c1c(O)c(-c2ccc(O)c(O)c2)oc2c(Br)c(O)c(Br)c(O)c12 [compound 10, 6,8-dibromoquercetin] | - | - | 1.70 ± 0.02 GAE | 28.6 ± 1.1 µM | 54.2 ± 0.3 µM | 1.02 | 55 ± 1.9 µM | 40.6 ± 2.6 µM
COc1cc([C@@H]2Oc3cc([C@H]4Oc5cc(O)c(Br)c(O)c5C(=O)[C@@H]4O)ccc3O[C@H]2CO)ccc1O [compound 13, 6-Bromosilybin B] | - | - | 1.17 ± 0.04 GAE | 728 µM | 162 µM | 0.47 | 76.4 ± 1.1 µM | 37 ± 2.4 µM
COc1cc([C@H]2Oc3cc([C@H]4Oc5cc(O)cc(O)c5C(=O)[C@@H]4O)ccc3O[C@@H]2CO)ccc1O [3a, silybin A, reference compound] | - | - | 1.35 ± 0.06 GAE | 213 µM | 236 µM | 0.46 | 109 µM | 53.9 ± 4.9 µM

Reference: PMC9738062, “Selectively Halogenated Flavonolignans—Preparation and Antibacterial Activity” (International Journal of Molecular Sciences, 2022)
